Entries after “also recorded” stand apart in the source; their conditions may differ.
Tests used:
[1] = tested on: peptide selected CD4^+ cells; experiment: Antigen response (proliferation) of lymph node CD4^+ cells from peptide-injected TCR^TgTCRα^−H2-M^−Ii^− mice; format: cell-based, mouse
Procedure: Antigen response of TCR transgenic cells. Proliferation of lymph node cells isolated from TCR^TgTCRα^−and TCR^TgTCRα^−2-M^−Ii^− mice injected with the selecting peptide was measured in response to antigen. Response of the TCR^TgTCRα^− lymph node cells to different agonist peptides was measured by proliferation assay in a 96-well plate. 10^5 responder cells were stimulated with peptides presented by 5×10^5 irradiated C57BL6 splenocytes. Agonist peptides were used at concentrations of 0.01, 0.1, 0.5, 1.0, 2.5, 5.0, 10.0 and 20.0 μM. After 3 days cells were pulsed with 1 μCi of [^3H]thymidine added to each well and after 18 hours thymidine incorporation was measured. The sequences of peptides used were: PCC50V (AEGFSYTVANKNKGIT), PCC50L (AEGFSYTLANKNKGIT), PCC50V54A (AEGFSYTVANKAKGIT), PCC46A49A50V54A (AEGASYAVANKAKGIT), PCC50F54A (AEGFSYTFANKAKGIT), neutral ceramidase (AGFFQYTLYILASEG) and IgGVH (NADFKTPATLTVDKA). […] Proliferation was measured after 3 days by thymidine incorporation by pulsing cells with 1 μCi of [^3H] thymidine for 18 hours. […] For antagonism assays the percent of proliferation inhibition was calculated as 100-100*(thymidine incorporation in the presence of antagonist/thymidine incorporation in the absence of antagonist) (Lyons et al., 1996).

[2] = tested on: TCR^TgTCRα^− lymph node cells; experiment: Proliferation of TCR transgenic lymph node cells stimulated with agonist peptides ([3H]thymidine incorporation); format: cell-based, mouse
Procedure: Antigen response of TCR transgenic cells. Proliferation of lymph node cells isolated from TCR^TgTCRα^−and TCR^TgTCRα^−2-M^−Ii^− mice injected with the selecting peptide was measured in response to antigen. Response of the TCR^TgTCRα^− lymph node cells to different agonist peptides was measured by proliferation assay in a 96-well plate. 10^5 responder cells were stimulated with peptides presented by 5×10^5 irradiated C57BL6 splenocytes. Agonist peptides were used at concentrations of 0.01, 0.1, 0.5, 1.0, 2.5, 5.0, 10.0 and 20.0 μM. After 3 days cells were pulsed with 1 μCi of [^3H]thymidine added to each well and after 18 hours thymidine incorporation was measured. The sequences of peptides used were: PCC50V (AEGFSYTVANKNKGIT), PCC50L (AEGFSYTLANKNKGIT), PCC50V54A (AEGFSYTVANKAKGIT), PCC46A49A50V54A (AEGASYAVANKAKGIT), PCC50F54A (AEGFSYTFANKAKGIT), neutral ceramidase (AGFFQYTLYILASEG) and IgGVH (NADFKTPATLTVDKA). All peptides were synthesized by FMOC (fluorenyl methoxycarbonyl) chemistry and purified by reversed-phase high-performance liquid chromatography. To compare the antigenic response of CD4^+ TCR Tg cells lymph node cells were collected from TCR^TgTCRα^− and TCR^TgTCRα^−H2-M^−Ii^− mice two weeks after peptide injection. Single cell suspensions were prepared and CD4^+ cells were sorted using magnetic beads coated with anti CD4 antibodies (MACS). Purity of sorted cells exceeded 85%. 2×10^4 of purified CD4^+ cells were used in proliferation assay. Cells were stimulated with increasing concentrations of agonist peptides presented by APCs from wild type or H2-M^−Ii^− mice. IgGVH derived peptide (20 μM) was used as a negative control. Peptides were presented by irradiated splenocytes from a C57BL6 mouse. Proliferation was measured after 3 days by thymidine incorporation by pulsing cells with 1 μCi of [^3H] thymidine for 18 hours. Antagonism assay was done by prepulsing 5×10^5 antigen-presenting cells per well for 2 hr. with 5 μM of the antigenic peptide PCC50V54A, washing, and then exposing them to varying concentrations of peptide analogs with 2×10^4 purified CD4^+ TCR^Tg lymphocytes as responder cells (Lyons et al., 1996). For antagonism assays the percent of proliferation inhibition was calculated as 100-100*(thymidine incorporation in the presence of antagonist/thymidine incorporation in the absence of antagonist) (Lyons et al., 1996).

peripheral CD4^+ T cells = experiment: Peptide injection into thymectomized TCR^TgTCRα^−H2-M^−Ii^− mice; format: in vivo, mouse; settings: two weeks after injection
Source text: Since the selecting peptide is an agonist, in a specific embodiment of the present invention the observed phenomenon results from the expansion of a small number of peripheral transgenic CD4^+ T cells rather than from induced positive selection. To test this possibility, two types of experiments have been performed. In the first experiment, the PCC TgTCRα^−H-2M^−Ii^− mice were thymectomized and then injected with the PCC50V54A peptide. Two weeks after injection, these mice were sacrificed and the number of peripheral CD4^+ T cells was counted. […] After 10 days, recipient mice were sacrificed and the presence of transgenic CD4^+ T cells in the transplanted thymus and lymph nodes was determined by FACS analysis. […]
Since the selecting peptide is an agonist, one could argue that the observed phenomenon results from the expansion of a small number of peripheral transgenic CD4^+ T cells rather than from induced positive selection (Martin & Bevan, 1997). […] Two weeks after injection, the mice were sacrificed and the number of peripheral CD4^+ T cells was counted. […] After 10 days, recipient mice were sacrificed and the presence of transgenic CD4^+ T cells in the transplanted thymus and host lymph nodes was determined by FACS analysis. […]

[3] = tested on: transgenic CD4^+ thymocytes; experiment: Neonatal thymic organ cultures (NTOC) from peptide-injected TgTCRα^−H-2M^−Ii^− neonates; format: cell-based, mouse; settings: single i.p. injection just after birth, thymus harvested 24 hours later
Source text: The TgTCRα^−H-2M^−Ii^− system enables the visualization of thymocyte positive selection in real time and in the native intrathymic environment. An in vitro system was setup where the transgenic thymocytes undergo efficient positive selection and commit to the CD4^+ lineage. […] These observations agreed with the previous reports in which CD8^+, but not CD4+, T cells could be positively selected by the specific peptide in FTOCs (Kenty et al., 1998; Liblau et al, 1996). Therefore, neonatal thymic organ cultures (NTOC) were established from TgTCRα^−-H-2M^−Ii^− neonates. The neonates received a single i.p. injection of the PCC50V54A peptide just after birth and were sacrificed 24 hours later when their thymuses were harvested.

In the case of “AEGFSYTVANKAKGIT [PCC50V54A, analog of pigeon cytochrome C peptide PCC(43-58)]”, the “response of peptide selected CD4^+ cells to agonist peptides in vitro” value [1] is reported as “functional and respond to agonist peptides; also recorded: weakly respond in vitro”, the “agonist potency / agonist properties” value ([2]; in vitro stimulation of transgenic T cells) is reported as “strong agonist” and the “recognition by the transgenic TCR / stimulation of transgenic cells” value ([2]; peptides presented by irradiated C57BL6 splenocytes) is reported as “recognizes; also recorded: stimulate”. The “total number of lymph node cells” value (peripheral CD4^+ T cells; 50 μg) was 11.5×10^6±1.6, the “number of peripheral CD4 transgenic T cells” value (peripheral CD4^+ T cells; versus non-injected thymectomized controls) was “very low and did not increase; also recorded: very few CD4^+ peripheral T cells” and the “duration of continuous positive selection of CD4^+ thymocytes in NTOC” value [3] was 4 to 5 days.

Reference: US20030021796A1, “Method of enhancing T cell immunity by selection of antigen specific T cells” (priority 2001, published 2003)
